Data set [1] deals with T1, ETB receptors (Cavia porcellus, UniProt H0VTF3).
T1 construct: Guinea pig cerebella were homogenized in a Potter-Elvejhem homogenizer; from tissue; host or cells: guinea pig cerebellum membranes
T1 sequence (H0VTF3 27-415): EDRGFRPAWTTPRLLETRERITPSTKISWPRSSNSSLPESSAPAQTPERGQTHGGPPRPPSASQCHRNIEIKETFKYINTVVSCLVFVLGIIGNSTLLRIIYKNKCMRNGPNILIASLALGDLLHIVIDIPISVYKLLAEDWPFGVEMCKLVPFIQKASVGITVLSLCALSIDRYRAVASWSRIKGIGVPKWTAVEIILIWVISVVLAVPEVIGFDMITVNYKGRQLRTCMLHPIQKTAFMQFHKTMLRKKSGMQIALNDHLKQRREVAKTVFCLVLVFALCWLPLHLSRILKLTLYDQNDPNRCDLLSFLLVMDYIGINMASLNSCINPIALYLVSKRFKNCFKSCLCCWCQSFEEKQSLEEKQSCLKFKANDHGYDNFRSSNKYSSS
Kind of data set: ETB receptor binding assay ([125I]-RZ3, guinea pig cerebellar membranes). The settings on record: 25 pM [125I]-RZ3, 25° C., 30 min.
Description: Guinea pig cerebella were homogenized in a Potter-Elvejhem homogenizer and [lacuna] obtained by differential centrifugation at 1000×g for 10 min and repeated centrifugation of the supernatant at 20,000×g for 10 min.

Data set [2] addresses T2, Cloned human ETA receptor (Homo sapiens, UniProt P25101).
T2 construct: expressed in transfected cells; host or cells: CHO cells
T2 sequence (P25101 21-427): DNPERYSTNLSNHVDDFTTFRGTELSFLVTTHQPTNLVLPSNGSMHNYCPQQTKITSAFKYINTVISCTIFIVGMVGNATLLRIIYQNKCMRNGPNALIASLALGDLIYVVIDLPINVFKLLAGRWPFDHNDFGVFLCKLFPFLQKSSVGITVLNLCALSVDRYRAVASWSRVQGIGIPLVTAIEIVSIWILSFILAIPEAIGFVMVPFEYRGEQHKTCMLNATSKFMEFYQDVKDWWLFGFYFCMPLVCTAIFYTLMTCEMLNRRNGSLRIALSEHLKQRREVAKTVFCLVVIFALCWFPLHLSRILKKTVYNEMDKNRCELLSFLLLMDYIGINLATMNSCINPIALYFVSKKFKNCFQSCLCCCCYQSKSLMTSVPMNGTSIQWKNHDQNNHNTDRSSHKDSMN
As to the kind of experiment: ETA receptor binding assay ([125I]-ET1, membranes of CHO cells). The settings on record: 25 pM [125I]-ET1, 25° C., 30 min. Here is the method:
Cloned human ETA receptor-expressing CHO cells and guinea pig cerebellar membranes with >60% ETB compared with ETA receptors were used for binding studies.
The ETA receptor-expressing CHO cells were grown in F12 medium containing 10% fetal calf serum, 1% glutamine, 100 U/ml penicillin and 0.2% streptomycin (Gibco BRL, Gaithersburg, Md., USA).
After 48 h, the cells were washed with PBS and incubated with 0.05% trypsin-containing PBS for 5 min. Neutralization was then carried out with F12 medium, and the cells were collected by centrifugation at 300×g. To lyze lyse the cells, the pellet was briefly washed with lysis buffer (5 mM Tris-IICl, pII 7.4 with 10% glycerol) and then incubated at a concentration of 10^7 cells/ml of lysis buffer at 4° C. for 30 min. The membranes were centrifuged at 20,000×g for 10 min, and the pellet was stored in liquid nitrogen.
For the ETA and ETB receptor binding assay, the membranes were suspended in incubation buffer (50 mM Tris-HCl, pH 7.4 with 5 mM MnCl2, 40 μg/ml bacitracin and 0.2% BSA) at a concentration of 50 μg of protein per assay mixture and incubated with 25 pM [125I] [^125I]-ET1 (ETA receptor assay) or 25 pM [125I] [^125I]-RZ3 (ETB receptor assay) in the presence and absence of test substance at 25° C. The nonspecific binding was determined using 10^--7 10^−7 M ET1. After 30 min, the free and bound radioligand were separated by filtration through GF/B glass fiber filters (Whatman, England) on a Skatron cell collector (Skatron, Lier, Norway) and the filters were washed with ice-cold Tris-HCl buffer, pH 7.4 with 0.2% BSA. The radioactivity collected on the filters was quantified using a Packard 2200 CA liquid scintillation counter.

Turning to `COc1cc(OC)nc(OC(C(=O)O)C(OC)(c2ccccc2)c2ccccc2)n1` (stereo not drawn) [Compound I-2], in data set [1], the inhibitory constant (Ki) was 34 nM.
Still for that read-out and setting: to `CCOC(c1ccccc1)(c1ccccc1)C(Oc1nc(OC)cc(OC)n1)C(=O)O` (stereo not drawn) [Compound I-4] belongs 2500 nM.
For `COc1cc(OC)nc(OC(C(=O)O)C(OC(C)C)(c2ccccc2)c2ccccc2)n1` (stereo not drawn) [Compound I-5], the figures for the inhibition constant Ki in data set [1] and in data set [2] were 160 nM and 12 nM, respectively.
As for `CCCOC(c1ccccc1)(c1ccccc1)C(Oc1nc(OC)cc(OC)n1)C(=O)O` (stereo not drawn) [Compound I-12], the affinity in data set [1], expressed as Ki, was 1700 nM.
In the case of `COc1cc(OC)nc(OC(C(=O)O)C(OCCCC(C)C)(c2ccccc2)c2ccccc2)n1` (stereo not drawn) [Compound I-23], the inhibitory constant (Ki) was determined as 1100 nM in data set [1] and 209 nM in data set [2].
For `COc1cc(OC)nc(OC(C(=O)O)C(OCC2CC2)(c2ccccc2)c2ccccc2)n1` (stereo not drawn) [Compound I-26] the same measures were 2000 nM and 23 nM.
For `COc1cc(OC)nc(OC(C(=O)O)C(Oc2ccccc2)(c2ccccc2)c2ccccc2)n1` (stereo not drawn) [Compound I-29] the same measures were 180 nM and 86 nM.
Consider `COc1cc(OC)nc(OC(C(=O)O)C(OCc2ccccc2)(c2ccccc2)c2ccccc2)n1` (stereo not drawn) [Compound I-47], for which the inhibition constant Ki in data set [1] amounted to 1500 nM; in data set [2] it was 150 nM.
Consider `COc1nc(OC(C(=O)O)C(OC)(c2ccccc2)c2ccccc2)nc2c1CCO2` (stereo not drawn) [Compound I-87], for which the Ki in data set [2] worked out at 1 nM.
Regarding `COc1nc(OC(C(=O)O)C(OC)(c2ccccc2)c2ccccc2)nc2c1CCC2` (stereo not drawn) [Compound I-96], the Ki in data set [1] was 56 nM; in data set [2], 0.6 nM.
As for `COc1cc(C)nc(OC(C(=O)O)C(OC)(c2ccccc2)c2ccccc2)n1` (stereo not drawn) [Compound I-103], the inhibitory constant (Ki) in data set [2] came to 0.4 nM.
In the case of `COc1cc(OC)nc(OC(C(=O)O)C(SC)(c2ccccc2)c2ccccc2)n1` (stereo not drawn) [Compound I-107], the results for the inhibition constant (Ki) in data set [1] and in data set [2] were 485 nM and 3 nM, respectively.
In turn, `COc1nc(OC(C(=O)OCc2ccccc2)C(OC)(c2ccccc2)c2ccccc2)nc2c1CCC2` (stereo not drawn) [Example 12, Benzyl 3-methoxy-2-(4-methoxy-6,7-dihydro-5H-cyclopentapyrimidin-2-yloxy)-3,3-diphenylpropionate] yielded a melting point of 143 to 147 °C.
Turning to `COc1nc(OC(C(=O)O)C(OC)(c2ccccc2)c2ccccc2)nc2c1ccn2C` (stereo not drawn) [I.89], the inhibitory constant (Ki) in data set [1] came to 9300 nM; in data set [2], 86 nM.
The compound `COc1cc(OC)nc(OC(C(=O)O)C2(OC)c3ccccc3-c3ccccc32)n1` (stereo not drawn) [II-1] gave a melting point of 96 to 98 °C. Moreover, the inhibition constant Ki in data set [1] stood at 2300 nM. In data set [2], the Ki came to 28 nM.
With `COc1cc(OC)nc(OC(C(=O)O)C2(OC)c3ccccc3CCc3ccccc32)n1` (stereo not drawn) [II-3], the results for the Ki in data set [1] and in data set [2] were 7300 nM and 107 nM, respectively.

(Values after patent USRE42462E1, “Carboxylic acid derivatives, their preparation and use” (Abbott GmbH & Co. KG, priority 1995, dated 2011).)
